Measured values published in patent US6608058B2, “6-methylnicotinamide derivatives as antiviral agents” (Dong Wha Pharm. Ind. Co., Ltd., priority 2000, dated 2003).

Tests used:
HBV polymerase = assay: Inhibitory effect on the in vitro activities of HBV polymerase in reverse transcription (ELISA-type); format: biochemical
Text: The present inventors submitted application for a patent concerning HBV polymerase genetically expressed in and separated from E. coli, the process of its preparation, and the method to measure the enzyme activities (KR 94-3918, KR 96-33998). In the present experiments HBV polymerase was used which had been expressed in E. coli as stated above.
The method used in the present invention to measure in vitro reverse transcribing activities of HBV polymerase is as follows. Basic principles are the same as those for ELISA, nucleotides with biotin- or digoxigenin- group are included as substrates and anti-DIG antibodies attached to peroxidase enzyme recognize the polymerized substrates.
To the wells coated with streptavidin, 20 μl of HBV polymerase, 20 μl of reaction mixture (10 μM each of DIG-UTP and Biotin-UTP, 46 mM Tris-HCl, 266 mM KCl, 27.5 mM MgCl2, 9.2 mM DTT substrate/primer hybrid), and 20 μl of test compound (added to […]) were added and allowed to react at 22° C. for 15 hrs. During this reaction, HBV polymerase catalyzes DNA synthesis, and digoxigenin and biotin attached to nucleotides form bonds to streptavidin coated on the bottom of wells. When the reaction was done, each well was washed with 250 μl of cleaning buffer (pH 7.0) for 30 seconds, which was repeated five times to remove remaining impurities. 200 μl of anti-DIG-POD antibody was added to each well and allowed to react for 1 hr at 37° C., and the wells were washed with cleaning buffer to remove impurities. 200 μl each of ABTS™, a substrate of peroxidase, was then added and allowed to react at room temperature for 30 min. Absorbancy was measured at 405 nm using ELISA reader.
The inhibitory effects in HBV polymerase activities for reverse transcription were calculated using the group without test compound as a control and the results are shown in Table 1 as follows.

[1] = target: T1, HIV reverse transcriptase (Human immunodeficiency virus type 1 group M subtype B, UniProt P04585); assay: Inhibitory effect on the in vitro HIV reverse transcriptase activity (non-radioactive RT assay kit); format: biochemical; conditions: for inhibition at 0.1 µg/mL: 0.1 μg/ml; for inhibition at 1 µg/mL: 1 μg/ml
T1 construct: purchased Boehringer Mannheim
Experimental: Non-radioactive reverse transcriptase assay kit (Boehringer Mannheim) was used in the measurement of in vitro transcriptase activities. 20 μl (40 ng) of HIV reverse transcriptase and 20 μl of reaction mixture containing matrix-primer hybrid poly(A)oligo(dT)15, DIG(digoxigenin)-dUTP, biotin-dUTP, dTTP were added to wells coated with streptavidin, and the test compounds prepared were also added at the final concentrations of 0.1 and 1 μ/ml and allowed to react at 37° C. for 1 hr. At this time, DNA is formed from RNA by the action of HIV reverse transcriptase, forming bonds with streptavidin coated on the bottom of wells through digoxigenin and biotin moieties attached to nucleotides.
When the reaction was completed, each well was washed with 250 μl of washing buffer (pH 7.0) for 30 sec. five times to remove remaining impurities. 200 μl of anti-DIG-POD […] was added to each well, then the mixture was allowed to react at 37° C. for 1 hr and washed as above to remove impurities. 200 μl of ABTS™, a substrate for peroxidase, was added to each well and the mixture was allowed to react at room temperature for 30 min. Absorbance at 405 nm was measured for each solution using ELISA reader to determine the inhibitory effect on the HIV reverse transcriptase activities. The percentage of inhibition in the activity of HIV reverse transcriptase was calculated using the group without test compound as control and the results are represented in Table 3.

Compound | Inhibitory activity on HBV-RT (%) (HBV polymerase; 0.01 μg/ml) | Inhibitory activity on HBV-RT (%) (HBV polymerase; 0.1 μg/ml) | Inhibitory activity on HBV-RT (%) (HBV polymerase; 1 μg/ml) | inhibition at 0.1 µg/mL [1] [%] | inhibition at 1 µg/mL [1] [%]
CCN(CC)CCNC(=O)c1ccc(C)nc1Nc1ccc2cn[nH]c2c1 [Example 13, N-[2-(diethylamino)ethyl]-2-(1H-6-indazolylamino)-6-methylnicotinamide] | 15 | 45 | 54 | – | –
Cc1ccc(C(=O)NN2CCN(C)CC2)c(Nc2ccc3cn[nH]c3c2)n1 [Example 17, 2-(1H-6-indazolylamino)-6-methyl-N-(4-methyl-1-piperazinyl)nicotinamide] | 24 | 56 | 86 | 50 | 84
Cc1ccc(C(=O)NCCCn2ccnc2)c(Nc2ccc3cn[nH]c3c2)n1 [Example 20, N-[3-(1H-1-imidazolyl)propyl]-2-(1H-6-indazolylamino)-6-methylnicotinamide] | 47 | 59 | 88 | 47 | 88
Cc1ccc(C(=O)NCCN2CCOCC2)c(Nc2ccc3cn[nH]c3c2)n1 [Example 14, 2-(1H-6-indazolylamino)-6-methyl-N-[2-(4-morpholinyl)ethyl]nicotinamide] | 52 | 68 | 91 | 41 | 70
Cc1ccc(C(=O)N2CCOCC2)c(Nc2ccc3cn[nH]c3c2)n1 [Example 23, 2-(1H-6-indazolylamino)-6-methyl-3-(4-morpholinylcarbonyl)pyridine] | 12 | 40 | 62 | – | –
Cc1ccc(C(=O)NN2CCOCC2)c(Nc2ccc3[nH]ncc3c2)n1 [Example 2, 2-(1H-5-indazolylamino)-6-methyl-N-(4-morpholinyl)nicotinamide] | 42 | 57 | 88 | 49 | 84
Cc1ccc(C(=O)NC2CC2)c(Nc2ccc3cn[nH]c3c2)n1 [Example 11, N-cyclopropyl-2-(1H-6-indazolylamino)-6-methylnicotinamide] | 32 | 54 | 84 | 45 | 82
Cc1ccc(C(=O)N(N)c2ccccn2)c(Nc2ccc3cn[nH]c3c2)n1 [Example 21, 2-(1H-6-indazolylamino)-6-methyl-N-(2-pyridyl)-3-pyridinecarbohydrazide] | 30 | 50 | 86 | 49 | 75
Cc1ccc(C(=O)NCCc2ccccn2)c(Nc2ccc3[nH]ncc3c2)n1 [Example 6, 2-(1H-5-indazolylamino)-6-methyl-N-(2-pyridylethyl)nicotinamide] | 40 | 55 | 84 | 45 | 77
Cc1ccc(C(=O)NCCN(C)C)c(Nc2ccc3cn[nH]c3c2)n1 [Example 12, N-[2-(dimethylamino)ethyl]-2-(1H-6-indazolylamino)-6-methylnicotinamide] | 49 | 60 | 86 | – | –
Cc1ccc(C(=O)NCc2cccnc2)c(Nc2ccc3[nH]ncc3c2)n1 [Example 5, 2-(1H-5-indazolylamino)-6-methyl-N-(3-pyridylmethyl)nicotinamide] | 37 | 43 | 65 | 38 | 69
Cc1ccc(C(=O)NCCO)c(Nc2ccc3cn[nH]c3c2)n1 [Example 10, N-(2-hydroxyethyl)-2-(1H-6-indazolylamino)-6-methylnicotinamide] | 48 | 62 | 89 | – | –
Cc1ccc(C(=O)NC(C)C)c(Nc2ccc3[nH]ncc3c2)n1 [Example 1, 2-(1H-5-indazolylamino)-N-isopropyl-6-methylnicotinamide] | 30 | 49 | 78 | 42 | 75
Cc1ccc(C(=O)NC(C)(C)C)c(Nc2ccc3cn[nH]c3c2)n1 [Example 9, N-(t-butyl)-2-(1H-6-indazolylamino)-6-methylnicotinamide] | 20 | 48 | 65 | – | –
Cc1ccc(C(=O)NCCN2CCCCC2)c(Nc2ccc3cn[nH]c3c2)n1 [Example 15, 2-(1H-6-indazolylamino)-6-methyl-N-[2-(1-piperidinyl)ethyl]nicotinamide] | 12 | 57 | 87 | 43 | 78
Cc1ccc(C(=O)NCc2cccnc2)c(Nc2ccc3cn[nH]c3c2)n1 [Example 19, 2-(1H-6-indazolylamino)-6-methyl-N-(3-pyridylmethyl)nicotinamide] | 32 | 48 | 76 | – | –
Cc1ccc(C(=O)NN2CCOCC2)c(Nc2ccc3cn[nH]c3c2)n1 [Example 16, 2-(1H-6-indazolylamino)-6-methyl-N-(4-morpholinyl)nicotinamide] | 35 | 51 | 78 | – | –
CNC(=O)c1ccc(C)nc1Nc1ccc2cn[nH]c2c1 [Example 7, 2-(1H-6-indazolylamino)-6-methyl-N-methylnicotinamide] | 21 | 50 | 70 | – | –
Cc1ccc(C(=O)N[C@H]2CC[C@H](O)CC2)c(Nc2ccc3[nH]ncc3c2)n1 [Example 3, N-(Trans-4-hydroxy-1-cyclohexyl)-2-(1H-5-indazolylamino)-6-methylnicotinamide] | 53 | 61 | 80 | 51 | 80
Cc1ccc(C(=O)N(N)C(=O)c2cccnc2)c(Nc2ccc3cn[nH]c3c2)n1 [Example 22, 2-(1H-6-indazolylamino)-6-methyl-N-(3-pyridylcarbonyl)-3-pyridinecarbohydrazide] | 26 | 54 | 85 | – | –
Cc1ccc(C(=O)Nc2cccnc2)c(Nc2ccc3cn[nH]c3c2)n1 [Example 18, 2-(1H-6-indazolylamino)-6-methyl-N-(3-pyridyl)nicotinamide] | 18 | 40 | 69 | – | –
Cc1ccc(C(=O)Nc2cccnc2)c(Nc2ccc3[nH]ncc3c2)n1 [Example 4, 2-(1H-5-indazolylamino)-6-methyl-N-(3-pyridyl)nicotinamide] | 50 | 64 | 92 | 40 | 64
Cc1ccc(C(=O)NC(C)C)c(Nc2ccc3cn[nH]c3c2)n1 [Example 8, 2-(1H-6-indazolylamino)-N-isopropyl-6-methylnicotinamide] | 23 | 54 | 78 | 28 | 65
